Paper PMC8881512 (Nature Communications, 2022)
Values joined by “and” are separate entries in the source; they are usually repeats but may differ in a detail not shown here. Identical values can stand only once.

Columns and labels:
[1] = tested on: MCF-7 cells; assay: Cell proliferation by cell counting, MCF-7; format: cell-based, human; details: for Cell proliferation normalised to DMSO treated WT cells: 4 days, Fig.6c
Method: (§1) Cell proliferation rates were determined by automated cell counter. In brief, cells were plated at density of 0.1 million cells per well in six-well plate. Cell numbers were counted by the indicated time point as stated in the figure legends.

[2] = tested on: T47D cells; assay: Cell proliferation by cell counting, T47D; format: cell-based; details: 0.5 µM or 2 µM, time course to 8 days; Supplementary Fig. 8c, d
Method: as §1

[3] = tested on: MDA-MB-231 cells; assay: Cell proliferation, MDA-MB-231; format: cell-based; details: 0.5 µM or 2 µM VT02956 for 4 days; Supplementary Fig. 8e
Method: as §1

[4] = tested on: melanoma B16 cells; assay: Cell proliferation, B16; format: cell-based; details: 0.5 µM or 2 µM VT02956 for 4 days; Supplementary Fig. 8f
Method: as §1

[5] = target: T1, LATS1 (Homo sapiens, UniProt O95835); assay: Kinome profiling; format: biochemical; details: VT02956 (5 nM)
T1 construct: purchased Signalchem
T1 sequence (O95835 1-1130): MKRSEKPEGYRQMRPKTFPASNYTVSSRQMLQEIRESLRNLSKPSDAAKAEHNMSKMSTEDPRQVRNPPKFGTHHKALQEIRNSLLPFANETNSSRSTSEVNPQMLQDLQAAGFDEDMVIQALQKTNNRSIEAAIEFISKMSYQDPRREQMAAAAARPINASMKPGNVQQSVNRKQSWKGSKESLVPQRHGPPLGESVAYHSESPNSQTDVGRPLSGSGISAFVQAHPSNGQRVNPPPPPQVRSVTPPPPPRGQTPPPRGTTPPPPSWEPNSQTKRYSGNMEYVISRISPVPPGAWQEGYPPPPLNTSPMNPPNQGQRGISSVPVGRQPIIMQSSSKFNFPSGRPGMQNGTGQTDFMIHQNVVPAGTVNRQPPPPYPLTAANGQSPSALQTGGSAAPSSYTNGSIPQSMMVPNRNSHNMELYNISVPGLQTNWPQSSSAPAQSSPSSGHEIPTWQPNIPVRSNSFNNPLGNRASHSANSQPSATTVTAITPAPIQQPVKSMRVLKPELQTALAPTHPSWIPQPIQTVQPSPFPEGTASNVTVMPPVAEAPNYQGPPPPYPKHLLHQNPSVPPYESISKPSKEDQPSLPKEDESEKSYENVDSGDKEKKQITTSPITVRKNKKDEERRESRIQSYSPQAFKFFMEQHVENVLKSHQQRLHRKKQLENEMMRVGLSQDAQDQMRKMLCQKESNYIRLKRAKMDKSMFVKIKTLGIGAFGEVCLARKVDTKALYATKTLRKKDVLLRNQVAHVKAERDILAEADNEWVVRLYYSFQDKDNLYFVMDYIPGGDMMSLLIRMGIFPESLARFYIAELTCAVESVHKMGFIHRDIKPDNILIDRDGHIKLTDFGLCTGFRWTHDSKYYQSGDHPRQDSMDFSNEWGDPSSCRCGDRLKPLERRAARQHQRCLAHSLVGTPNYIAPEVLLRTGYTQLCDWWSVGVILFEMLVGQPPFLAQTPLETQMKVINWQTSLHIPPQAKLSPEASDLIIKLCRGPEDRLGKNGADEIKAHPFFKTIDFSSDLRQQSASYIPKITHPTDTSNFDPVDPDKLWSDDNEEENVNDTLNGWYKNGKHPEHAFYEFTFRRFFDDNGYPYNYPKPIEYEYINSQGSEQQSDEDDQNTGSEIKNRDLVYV

[6] = target: T2, LATS2 (Homo sapiens, UniProt Q9NRM7); assay: Kinome profiling; format: biochemical; details: VT02956 (5 nM)
T2 construct: purchased Signalchem
T2 sequence (Q9NRM7 1-1088): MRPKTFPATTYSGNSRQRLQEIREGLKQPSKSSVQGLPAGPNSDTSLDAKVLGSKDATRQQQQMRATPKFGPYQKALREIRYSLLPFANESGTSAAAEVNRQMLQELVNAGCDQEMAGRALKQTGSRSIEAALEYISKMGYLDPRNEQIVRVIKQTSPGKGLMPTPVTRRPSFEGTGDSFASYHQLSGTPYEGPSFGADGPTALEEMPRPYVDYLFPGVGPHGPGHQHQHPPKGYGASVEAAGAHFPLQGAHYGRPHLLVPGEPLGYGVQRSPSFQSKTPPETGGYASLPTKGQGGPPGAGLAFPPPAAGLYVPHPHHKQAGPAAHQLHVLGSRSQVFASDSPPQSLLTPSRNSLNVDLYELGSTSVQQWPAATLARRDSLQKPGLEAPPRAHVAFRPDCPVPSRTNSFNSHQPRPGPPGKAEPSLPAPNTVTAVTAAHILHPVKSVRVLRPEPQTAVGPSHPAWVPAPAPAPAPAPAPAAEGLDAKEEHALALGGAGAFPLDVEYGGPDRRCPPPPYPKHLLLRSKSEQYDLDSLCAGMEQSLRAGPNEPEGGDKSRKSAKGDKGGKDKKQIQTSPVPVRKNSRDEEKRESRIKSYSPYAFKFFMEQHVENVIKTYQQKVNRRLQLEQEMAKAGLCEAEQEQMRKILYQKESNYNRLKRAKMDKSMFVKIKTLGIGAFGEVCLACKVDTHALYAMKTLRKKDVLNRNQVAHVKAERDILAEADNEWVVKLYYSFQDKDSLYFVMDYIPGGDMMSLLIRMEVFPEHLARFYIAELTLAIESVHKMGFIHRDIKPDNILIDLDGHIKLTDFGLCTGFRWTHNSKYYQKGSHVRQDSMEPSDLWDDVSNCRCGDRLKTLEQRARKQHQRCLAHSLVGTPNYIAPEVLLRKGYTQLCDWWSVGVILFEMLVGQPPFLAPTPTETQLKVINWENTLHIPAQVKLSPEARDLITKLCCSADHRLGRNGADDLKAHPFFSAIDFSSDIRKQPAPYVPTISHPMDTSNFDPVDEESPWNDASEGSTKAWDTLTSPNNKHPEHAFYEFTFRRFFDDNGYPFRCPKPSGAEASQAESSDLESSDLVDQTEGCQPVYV

[7] = target: T3, BLK (Homo sapiens, UniProt P51451); assay: Kinome profiling; format: biochemical; details: VT02956 (5 nM), read-out: % enzymatic activity relative to DMSO controls
T3 construct: LATS1/LATS2 enzymes from Signalchem

[8] = target: T4, WNK3 (Homo sapiens, UniProt Q9BYP7); assay: Kinome profiling; format: biochemical; details: VT02956 (5 nM), read-out: % enzymatic activity relative to DMSO controls
T4 construct: LATS1/LATS2 enzymes from Signalchem

[9] = target: T5, TXK (Homo sapiens, UniProt P42681); assay: Kinome profiling; format: biochemical; details: VT02956 (5 nM), read-out: % enzymatic activity relative to DMSO controls
T5 construct: LATS1/LATS2 enzymes from Signalchem

[10] = target: T6, AKT2 (Homo sapiens, UniProt P31751); assay: Kinome profiling; format: biochemical; details: VT02956 (5 nM), read-out: % enzymatic activity relative to DMSO controls
T6 construct: LATS1/LATS2 enzymes from Signalchem
T6 sequence (P31751 whole entry): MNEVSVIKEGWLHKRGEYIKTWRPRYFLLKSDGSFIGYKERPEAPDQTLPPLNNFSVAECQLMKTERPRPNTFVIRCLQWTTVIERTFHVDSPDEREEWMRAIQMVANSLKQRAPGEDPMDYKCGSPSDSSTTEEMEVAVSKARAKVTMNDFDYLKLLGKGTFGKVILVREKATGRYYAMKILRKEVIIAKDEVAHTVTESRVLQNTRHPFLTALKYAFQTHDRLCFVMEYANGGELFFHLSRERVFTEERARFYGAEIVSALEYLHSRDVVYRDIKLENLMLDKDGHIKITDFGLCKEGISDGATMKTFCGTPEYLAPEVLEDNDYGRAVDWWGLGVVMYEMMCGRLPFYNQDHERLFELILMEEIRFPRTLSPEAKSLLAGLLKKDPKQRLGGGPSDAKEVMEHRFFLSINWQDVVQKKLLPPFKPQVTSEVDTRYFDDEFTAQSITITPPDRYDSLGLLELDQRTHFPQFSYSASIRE

T3 sequence (P51451 whole entry): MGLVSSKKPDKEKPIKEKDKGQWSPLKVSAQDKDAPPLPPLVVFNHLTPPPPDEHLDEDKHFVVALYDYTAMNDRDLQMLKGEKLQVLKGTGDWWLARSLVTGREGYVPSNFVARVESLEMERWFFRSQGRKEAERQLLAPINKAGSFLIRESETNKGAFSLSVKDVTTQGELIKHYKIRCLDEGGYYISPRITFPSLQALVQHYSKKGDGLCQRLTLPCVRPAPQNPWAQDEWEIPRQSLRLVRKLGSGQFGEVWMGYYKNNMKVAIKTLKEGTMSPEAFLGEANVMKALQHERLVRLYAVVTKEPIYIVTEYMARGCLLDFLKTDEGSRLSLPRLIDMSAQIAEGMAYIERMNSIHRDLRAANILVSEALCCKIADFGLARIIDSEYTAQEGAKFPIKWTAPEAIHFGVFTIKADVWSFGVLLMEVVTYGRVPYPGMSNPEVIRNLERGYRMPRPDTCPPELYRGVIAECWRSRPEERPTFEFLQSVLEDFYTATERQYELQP
T4 sequence (Q9BYP7 whole entry): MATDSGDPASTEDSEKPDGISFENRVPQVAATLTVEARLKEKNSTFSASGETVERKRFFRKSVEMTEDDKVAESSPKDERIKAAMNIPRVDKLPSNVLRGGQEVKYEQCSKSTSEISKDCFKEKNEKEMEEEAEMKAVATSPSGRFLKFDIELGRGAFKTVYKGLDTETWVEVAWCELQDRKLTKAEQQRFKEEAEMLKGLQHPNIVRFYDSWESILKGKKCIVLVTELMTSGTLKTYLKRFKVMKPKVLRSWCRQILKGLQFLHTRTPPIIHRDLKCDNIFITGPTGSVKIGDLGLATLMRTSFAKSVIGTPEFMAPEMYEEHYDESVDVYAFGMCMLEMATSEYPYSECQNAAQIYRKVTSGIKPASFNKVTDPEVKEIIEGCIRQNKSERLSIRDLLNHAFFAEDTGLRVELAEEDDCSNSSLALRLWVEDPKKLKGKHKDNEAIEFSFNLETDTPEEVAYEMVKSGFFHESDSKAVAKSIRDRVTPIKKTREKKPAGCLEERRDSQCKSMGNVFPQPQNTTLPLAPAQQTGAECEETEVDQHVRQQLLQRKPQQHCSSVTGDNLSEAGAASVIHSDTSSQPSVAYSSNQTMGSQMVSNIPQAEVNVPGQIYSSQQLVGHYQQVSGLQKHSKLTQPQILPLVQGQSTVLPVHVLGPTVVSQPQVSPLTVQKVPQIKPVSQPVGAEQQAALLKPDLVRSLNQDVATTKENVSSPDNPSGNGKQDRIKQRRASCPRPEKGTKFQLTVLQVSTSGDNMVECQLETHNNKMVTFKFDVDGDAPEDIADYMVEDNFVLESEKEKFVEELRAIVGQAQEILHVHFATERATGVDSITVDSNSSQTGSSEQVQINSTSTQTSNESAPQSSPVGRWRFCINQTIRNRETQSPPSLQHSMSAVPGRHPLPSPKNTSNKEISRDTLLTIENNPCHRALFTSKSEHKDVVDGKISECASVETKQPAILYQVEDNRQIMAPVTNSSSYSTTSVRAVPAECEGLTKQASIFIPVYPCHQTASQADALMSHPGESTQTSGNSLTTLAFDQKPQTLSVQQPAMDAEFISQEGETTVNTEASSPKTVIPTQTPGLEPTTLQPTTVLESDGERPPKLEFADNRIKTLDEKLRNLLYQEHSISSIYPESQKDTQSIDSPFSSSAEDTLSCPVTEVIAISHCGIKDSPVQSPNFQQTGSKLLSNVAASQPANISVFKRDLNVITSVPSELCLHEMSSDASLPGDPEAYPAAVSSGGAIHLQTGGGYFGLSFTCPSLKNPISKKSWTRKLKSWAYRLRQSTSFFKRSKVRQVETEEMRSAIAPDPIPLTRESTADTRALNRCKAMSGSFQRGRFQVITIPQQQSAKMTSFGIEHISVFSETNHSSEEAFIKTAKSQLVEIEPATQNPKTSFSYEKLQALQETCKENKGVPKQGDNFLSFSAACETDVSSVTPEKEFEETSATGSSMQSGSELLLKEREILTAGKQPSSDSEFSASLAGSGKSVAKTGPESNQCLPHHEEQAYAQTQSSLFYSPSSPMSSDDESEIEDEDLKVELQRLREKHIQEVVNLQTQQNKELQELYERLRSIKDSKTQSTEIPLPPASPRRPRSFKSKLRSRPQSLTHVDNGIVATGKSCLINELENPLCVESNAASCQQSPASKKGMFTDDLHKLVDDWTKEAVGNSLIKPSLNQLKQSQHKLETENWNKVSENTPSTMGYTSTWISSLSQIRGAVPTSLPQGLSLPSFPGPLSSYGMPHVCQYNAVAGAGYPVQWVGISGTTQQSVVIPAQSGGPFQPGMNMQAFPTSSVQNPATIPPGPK
T5 sequence (P42681 whole entry): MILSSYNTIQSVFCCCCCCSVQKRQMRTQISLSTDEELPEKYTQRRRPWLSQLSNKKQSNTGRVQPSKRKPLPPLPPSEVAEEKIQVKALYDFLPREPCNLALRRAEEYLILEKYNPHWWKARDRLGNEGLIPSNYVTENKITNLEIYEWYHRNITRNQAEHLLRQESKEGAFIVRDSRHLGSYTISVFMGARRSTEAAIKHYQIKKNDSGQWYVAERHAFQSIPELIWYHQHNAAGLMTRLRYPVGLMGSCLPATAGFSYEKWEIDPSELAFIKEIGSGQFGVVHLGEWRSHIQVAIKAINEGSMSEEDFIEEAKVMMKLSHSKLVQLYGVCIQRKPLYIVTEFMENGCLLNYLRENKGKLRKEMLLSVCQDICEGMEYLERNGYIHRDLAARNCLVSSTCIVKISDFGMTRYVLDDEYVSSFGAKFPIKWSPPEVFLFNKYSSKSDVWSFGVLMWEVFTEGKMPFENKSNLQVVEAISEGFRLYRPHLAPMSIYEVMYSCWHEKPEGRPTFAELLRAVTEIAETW

% enzymatic activity relative to DMSO controls [5]: 22%
% enzymatic activity relative to DMSO controls [6]: 34%
remaining activity at 0.005 µM [7]: 78%
remaining activity at 0.005 µM [8]: 82%
remaining activity at 0.005 µM [9]: 83%
remaining activity at 0.005 µM [10]: 85%
Compound: NCC1CCN(c2nc(-c3ccncc3)nc3c(C#CCO)cccc23)CC1 [VT02956]
MCF-7 proliferation ([1]; 0.5 µM or 2 µM, 4-day time course, Supplementary Fig. 8a, b): inhibited the proliferation of MCF-7 and T47D cells
Cell proliferation normalised to DMSO treated WT cells ([1]; MCF-7 LATS1/2 dKO, VT02956 0.5 uM): 31.2704 and 24.43 and 25.4072
Cell proliferation normalised to DMSO treated WT cells ([1]; MCF-7 LATS1/2 dKO, VT02956 2 uM): 23.4528 and 26.3844 and 21.4984
Cell proliferation normalised to DMSO treated WT cells ([1]; MCF-7 WT, VT02956 0.5 uM): 76.2215 and 83.0619 and 85.9935
Cell proliferation normalised to DMSO treated WT cells ([1]; MCF-7 WT, VT02956 2 uM): 41.0423 and 42.0195
Cell proliferation normalised to DMSO treated WT cells ([1]; MCF-7 YAP/TAZ dKO, VT02956 0.5 uM): 94.7883 and 88.9251 and 92.8339
Cell proliferation normalised to DMSO treated WT cells ([1]; MCF-7 YAP/TAZ dKO, VT02956 2 uM): 84.0391 and 80.1303 and 85.0163
T47D proliferation [2]: inhibited the proliferation of MCF-7 and T47D cells
growth of ER negative breast cancer MDA-MB-231 cells [3]: had little effect
growth of ER negative melanoma B16 cells [4]: had little effect
